The text below walks through data of patent publication US20240165226A1, “COMBINATION TREATMENT OF CD38-EXPRESSING TUMORS” (GENMAB A/S, priority 2006, published 2024).

Assay [1] concerns Daudi-luc cells. The experiment in a line: Complement-dependent cytotoxicity of Daudi-luc cells. As to conditions: for CDC-mediated lysis of Daudi-luc cells: in words. It is filed as cell-based. As to the method: After harvesting and counting of Daudi-luc cells, the viability of the cells should be ≥90%. After washing (PBS), cells are resuspended at 2.0×10^6 cells/ml in RPMI-B (RPMI supplemented with 1% BSA). Thereafter, cells are put in 96-well round-bottom plates at 1×10^5 cells/well (50 μl/well). Then, 50 μl antibodies is added to the wells (final concentration range between 0-100 μg/ml (three-fold dilutions in RPMI-B)). After incubation (RT, 15 min), 11 μl of pooled human serum (pool of 18 healthy donors) was added to each well (37° ° C., 45 min). Wells were resuspended once and 120 μl was transferred to FACS tubes (Greiner). Then, 10 μl propidium iodide (PI; Sigma-Aldrich Chemie B.V.) was added (10 μg/ml solution) to this suspension. Lysis was detected by flow cytometry (FACScalibur™, Becton Dickinson, San Diego, CA, USA) by measurement of the percentage of dead cells (corresponds to PI-positive cells).

The subject of assay [2] is Daudi-luc cells. The experiment in a line: ADCC (51Cr release) of Daudi-luc cells. It is filed as cell-based. The following applies: for lysis of Daudi cells by ADCC: in words. As to the method:
Daudi-luc cells, fresh multiple myeloma tumor cells, fresh Plasma Cell Leukemia tumor cells and JK6L and AMO-1 multiple myeloma cells were collected (5×10^6 cells) in RPMI^++ (RPMI 1640 culture medium supplemented with 10% cosmic calf serum (HyClone, Logan, UT, USA)), to which 100 μCi ^51Cr (Chromium-51; Amersham Biosciences Europe GmbH, Roosendaal, The Netherlands) was added, and the mixture was incubated in a 37° C. water bath for 1 hr. After washing of the cells (twice in PBS, 1500 rpm, 5 min), the cells were resuspended in RPMI^++ and counted by trypan blue exclusion. Cells were brought at concentration of 1×10^5 cells/ml.
Fresh peripheral blood mononuclear cells (healthy volunteers, UMC Utrecht, Utrecht, The Netherlands) were isolated from 40 ml of heparin blood by Ficoll (Bio Whittaker; lymphocyte separation medium, cat 17-829E) according to the manufacturer's instructions. After resuspension of cells in RPMI^++, cells were counted by trypan blue exclusion and brought at concentration of 1×10^7 cells/ml.
50 μl of ^51Cr-labeled targets cells were pipetted into 96-well plates, and 50 μl of antibody was added, diluted in RPMI^++ (final concentrations 10, 1, 0.1, 0.01 μg/ml). Cells were incubated (RT, 15 min), and 50 μl effector cells were added, resulting in an effector to target ratio of 100:1 (for determination of maximal lysis, 100 μl 5% Triton-X100 was added instead of effector cells; for determination of spontaneous lysis, 50 μl target cells and 100 μl RPMI++ were used). Cells were spun down (500 rpm, 5 min), and incubated (37° C., 5% CO2, 4 hr). After spinning down cells (1500 rpm, 5 min), 100 μl of supernatant was harvested into micronic tubes, and counted in gamma counter. The percentage specific lysis was calculated as follows:
(cpm sample−cpm target cells only)/(cpm maximal lysis−cpm target cells only)
wherein cpm is counts per minute.

Assay [3] concerns fresh MM tumor cells. Description: Binding to fresh multiple myeloma tumor cells by flow cytometry. On the set-up: species or system human. The following applies: for binding to MM cells: in words. As to the method: Fresh MM tumor cells were obtained from Dr. Lokhorst (University Medical Center Utrecht, Utrecht, The Netherlands. Tumor cells were isolated from bone marrow of multiple myeloma patients by Ficoll (Bio Whittaker; lymphocyte separation medium, cat 17-829E) gradient centrifugation. After harvesting and counting, MM cells (100,000 cells/well) were resuspended with 25 μl FITC-labeled CD38-specific antibodies and 25 μl CD138. After incubation (4° C., 30 min), cells were washed in PBS-BSA and PE-labeled goat-anti-mouse IgG (1:200; Jackson ImmunoResearch Europe Ltd. Soham, UK) was added. After incubation (4° C., 30 min) and washing of the cells in PBS-BSA, fluorescence was measured by flow cytometry.
(In general: Flow cytometry measures light scatter and fluorescence of single cells or particles in a stream.)

Assay [4] deals with EBV transformed chimpanzee B cells. The experiment in a line: Binding to EBV transformed chimpanzee B cells by flow cytometry. As to conditions: FITC-labeled antibody. As for the experimental part: After harvesting and counting, EBV transformed chimpanzee B cells (received from Biomedical Primate Research Centre, Department Immunobiology, Rijswijk, The Netherlands) were resuspended (1×10^6 cells/ml) in PBS-BSA (PBS supplemented with 0.1% BSA and 0.02% Na-azide). Then, cells were put in 96-well V-bottom plates (100 μl/well) and washed twice in PBS-BSA. Thereafter, 50 μl FITC-labeled -005 antibody solution in PBS-BSA was added to the cells (4° C., 30 min). Cells were washed three times and specific binding of -005 to EBV transformed chimpanzee B cells was detected by flow cytometry. FITC labeled HuMab-KLH (a human monoclonal antibody against KLH (keyhole limpet haemocyanin) generated by Genmab B.V., Utrecht, The Netherlands by use of the immunization protocols described elsewhere herein) was used as a control.

In assay [5] the target is T1, CD38-transfected CHO (CHO-CD38) cells (Homo sapiens, UniProt P28907).
T1 construct: expressed in transfected cells; host or cells: CHO cells
Description: Binding to CD38-transfected CHO cells by flow cytometry. As to conditions: for binding to CHO-CD38 cells: in words. As for the experimental part: After harvesting and counting, Daudi-luc cells, CHO cells transfected with CD38 and control CHO cells were resuspended in PBS (1×10^6 cells/ml). Then, cells were put in 96-well V-bottom plates (100 μl/well) and washed twice in PBS-BSA (PBS supplemented with 0.1% BSA and 0.02% Na-azide). Thereafter, 50 μl antibody solution in PBS-BSA was added to the cells (4° C., 30 min). After washing three times in PBS-BSA, 50 μl (1:400 dilution) of rabbit anti-human IgG-FITC in PBS-BSA was added (4° C. in the dark, 30 min). Cells were washed three times and specific binding of CD38-antibodies to CHO-CD38 and Daudi-luc cells was detected by flow cytometry. HuMab-KLH (a human monoclonal antibody against KLH (keyhole limpet haemocyanin) generated by Genmab B.V., Utrecht, The Netherlands by use of the immunization protocols described elsewhere herein) was used as a control. […] No binding to control CHO cells is observed (data not shown).

In assay [6] the test system is CHO-CD38 cells. The experiment in a line: Complement-dependent cytotoxicity of CHO-CD38 cells. It is filed as cell-based. The following applies: for CDC-mediated lysis of CHO-CD38 cells: in words.
Where [7] appears, read: CDC, Daudi-luc cells (n = 2), Table 10.
Setting [8] is: CDC, CHO-CD38 cells (n = 2), Table 10.

“Also recorded” adds a separate entry of the source.

By EC50 is commonly meant the concentration at which the effect is half-maximal. High values mean weaker potency, low ones greater potency. “-005: human monoclonal IgG1 anti-CD38 antibody, VL region SEQ ID No:12 and VH region SEQ ID No:17” registered a maximum lysis in assay [1] (CDC) of roughly 60%. Also, in assay [1] (CDC of Daudi-luciferase cells), the “maximal lysis compared to TH3079” value was 2-3 times higher. Besides, the “% Max. lysis” value in assay [1] (setting [7]) worked out at 70.5 ± 7.78%; in assay [6] (setting [8]), 76.5 ± 3.54%. The EC50 in assay [1] (setting [7]) is 0.39 ± 0.00 µg/mL; in assay [6] (setting [8]), 0.15 ± 0.007 µg/mL. For the same molecule, the “EC50 Daudi-luc” value in assay [1] (CDC, Table 3) was found to be 0.33 µg/mL; in assay [2] (ADCC, Table 2 first column, effector to target ratio 100:1), 0.0045 µg/mL. In assay [1], the “CDC-mediated lysis of Daudi-luc cells” value is “lysis of Daudi-luc cells is induced”. For the same molecule, the “Maximal lysis (%)” value in assay [2] (ADCC, Daudi target cells, n=5) turned out to be 49.2%. Further, in assay [2] (Daudi-luc cells), the “ADCC performance compared to rituximab” value is on record as “slightly better than rituximab”. Moreover, the “lysis of Daudi cells by ADCC” value in assay [2] is given as “induce lysis by ADCC; also recorded: mediate lysis”. In addition, the “EC50 MM cells” value in assay [3] (binding, flow cytometry) is 0.04 µg/mL. In addition, the “binding to MM cells” value in assay [3] is “bind”. Further, the “binding to EBV transformed chimpanzee B cells” value in assay [4] is “dose dependent binding”. Moreover, the “EC50 CHO-CD38” value in assay [5] (binding, flow cytometry) amounted to 0.23 µg/mL. Further, in assay [5], the “binding to CHO-CD38 cells” value is given as “bind”. In addition, in assay [6] (CDC, Table 3), the “EC50 CD38-CHO” value came to 0.14 µg/mL. For the same molecule, the “CDC-mediated lysis of CHO-CD38 cells” value in assay [6] is given as “lysis is induced; also recorded: induce CDC-mediated lysis”.

B1: -024: human monoclonal IgG1 anti-CD38 antibody, VL region SEQ ID No:22 and VH region SEQ ID No:27 (antibody, listed as Homo sapiens, V domains shown)
VH: EVQLVQSGAEVKKPGESLKISCKGSGYSFSNYWIGWVRQMPGKGLEWMGIIYPHDSDARYSPSFQGQVTFSADKSISTAYLQWSSLKASDTAMYYCARHVGWGSRYWYFDLWGRGTLVTVSS
VL: EIVLTQSPATLSLSPGERATLSCRASQSVSSYLAWYQQKPGQAPGLLIYDASNRASGIPARFSGSGSGTDFTLTISSLEPEDFAVYYCQQRSNWPLTFGGGTKVEIK
Consider B1, for which, in assay [1], the “CDC-mediated lysis of Daudi-luc cells” value is on record as “does not induce CDC”. The “lysis of Daudi cells by ADCC” value in assay [2] is “induce lysis by ADCC”. In assay [3], the “binding to MM cells” value is given as “bind”. For the same molecule, the “binding to CHO-CD38 cells” value in assay [5] is on record as “bind”. Further, the “CDC-mediated lysis of CHO-CD38 cells” value in assay [6] was “lysis is induced”.
